Data taken from ChEMBL document CHEMBL1141920, “Substituted aminobenzimidazole pyrimidines as cyclin-dependent kinase inhibitors” (Bioorg Med Chem Lett, 2005).
Where “and” joins values, the source holds several entries; their conditions need not be identical. Identical values can stand only once.

What was measured:
[1] = molecular target: Cyclin-dependent kinase 1 (Homo sapiens, UniProt P06493); assay: Inhibitory concentration against Cyclin dependent kinase 1
[2] = molecular target: Mitogen-activated protein kinase 3 (Homo sapiens, UniProt P27361); assay: Inhibitory concentration against Extracellular signal-regulated kinase 1
[3] = Inhibitory concentration against Platelet-derived growth factor receptor
[4] = Inhibitory concentration against Mitogen-activated protein kinase p38; design: species or system Homo sapiens
[5] = Inhibitory concentration against Casein kinase 2
[6] = Inhibitory concentration against Cyclin dependent kinase 2; design: species or system Homo sapiens
[7] = molecular target: Cyclin-dependent kinase 4 (Homo sapiens, UniProt P11802); assay: Inhibitory concentration against Cyclin dependent kinase 4
Sequence of Cyclin-dependent kinase 4 (P11802 whole entry): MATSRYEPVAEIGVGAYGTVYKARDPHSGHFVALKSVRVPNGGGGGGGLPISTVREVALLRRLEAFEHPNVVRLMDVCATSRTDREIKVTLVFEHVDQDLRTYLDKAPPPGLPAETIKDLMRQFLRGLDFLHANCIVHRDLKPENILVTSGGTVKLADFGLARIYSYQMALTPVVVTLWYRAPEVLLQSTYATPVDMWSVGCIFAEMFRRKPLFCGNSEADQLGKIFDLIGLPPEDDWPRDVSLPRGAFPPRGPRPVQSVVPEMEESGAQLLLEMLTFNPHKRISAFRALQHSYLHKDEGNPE

Sequence of Cyclin-dependent kinase 1 (P06493 whole entry): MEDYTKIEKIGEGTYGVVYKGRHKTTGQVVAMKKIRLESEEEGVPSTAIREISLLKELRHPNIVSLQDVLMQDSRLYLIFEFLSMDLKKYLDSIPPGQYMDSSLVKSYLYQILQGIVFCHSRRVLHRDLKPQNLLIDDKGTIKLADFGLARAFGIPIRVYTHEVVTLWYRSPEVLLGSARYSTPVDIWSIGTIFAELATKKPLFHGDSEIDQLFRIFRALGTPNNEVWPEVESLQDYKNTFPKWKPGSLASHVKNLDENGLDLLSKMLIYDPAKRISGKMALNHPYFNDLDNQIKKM
Sequence of Mitogen-activated protein kinase 3 (P27361 whole entry): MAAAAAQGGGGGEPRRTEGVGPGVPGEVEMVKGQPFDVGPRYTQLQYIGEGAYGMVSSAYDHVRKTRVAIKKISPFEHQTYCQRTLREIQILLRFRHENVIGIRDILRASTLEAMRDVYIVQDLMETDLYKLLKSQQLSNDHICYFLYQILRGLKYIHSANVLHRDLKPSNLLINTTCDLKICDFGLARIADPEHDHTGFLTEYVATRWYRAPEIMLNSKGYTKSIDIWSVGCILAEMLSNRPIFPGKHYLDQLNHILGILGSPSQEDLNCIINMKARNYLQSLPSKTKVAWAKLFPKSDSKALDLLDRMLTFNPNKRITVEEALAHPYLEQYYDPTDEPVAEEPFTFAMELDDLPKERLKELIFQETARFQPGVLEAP

Row | SMILES | IC50 [1] [nM] | also measured
1 | CC(C)COc1nc(Nc2ccc3[nH]cnc3c2)ncc1C(F)(F)F | 2 | –
2 | Clc1cccc(CNc2nc(Nc3ccc4[nH]cnc4c3)ncc2Br)c1Cl | 126 | –
3 | c1cc(Nc2ccc3[nH]cnc3c2)nc(Nc2ccc3[nH]cnc3c2)n1 | > 1000 | –
4 | FC(F)(F)c1cnc(Nc2ccc3[nH]cnc3c2)nc1Nc1ccc2[nH]cnc2c1 | 10 | –
5 | FC(F)(F)c1cnc(Nc2ccc3[nH]cnc3c2)nc1OC1CCCCC1 | 43 | –
6 | Fc1cnc(Nc2ccc3nc[nH]c3c2)nc1Nc1ccc2nc[nH]c2c1 | 430 | –
7 | Brc1cnc(Nc2ccc3nc[nH]c3c2)nc1Nc1ccc(Oc2cccnc2)cc1 | 34 | –
8 | Cc1ccccc1Sc1nc(Nc2ccc3[nH]cnc3c2)ncc1C(F)(F)F | 135 | –
9 | FC(F)(F)c1cnc(Nc2ccc3[nH]cnc3c2)nc1Nc1ccccc1Cl | – | IC50 [2]: > 1000 nM; IC50 [3]: 290 nM; IC50 [4]: > 1000 nM; IC50 [5]: 510 nM
10 | c1cc(Nc2ccc3[nH]ccc3c2)nc(Nc2ccc3[nH]ccc3c2)n1 | > 1000 | –
11 | Fc1ccc(Nc2nc(Nc3ccc4[nH]cnc4c3)ncc2Br)cc1 | 4 | –
12 | Brc1cnc(Nc2ccc(Oc3cccnc3)cc2)nc1Nc1ccc2nc[nH]c2c1 | 248 | –
13 | Brc1cnc(Nc2ccc3nc[nH]c3c2)nc1NC1CCCc2ccccc21 (centres undefined) | 392 | –
14 | Brc1cnc(Nc2ccc3[nH]ccc3c2)nc1Nc1ccc2[nH]ccc2c1 | > 1000 | –
15 | Fc1cnc(Nc2ccc3[nH]ccc3c2)nc1Nc1ccc2[nH]ccc2c1 | > 1000 | –
16 | Brc1cnc(Nc2ccc3[nH]cnc3c2)nc1NC1CCc2ccccc21 (centres undefined) | 34 | –
17 | FC(F)(F)c1cnc(Nc2ccc3[nH]ccc3c2)nc1Nc1ccc2[nH]ccc2c1 | > 1000 | –
18 | Clc1cccc(Nc2ncc(Br)c(Nc3ccc4nc[nH]c4c3)n2)c1 | 9 | –
19 | Brc1cnc(Nc2ccc3[nH]cnc3c2)nc1Nc1ccc2c(c1)OCO2 | 9 | –
20 | Brc1cnc(Nc2ccc3nc[nH]c3c2)nc1Nc1ccc2nc[nH]c2c1 | 14 | –

More lines, main results first:

Row | IC50 [1] [nM] | SMILES | also measured
21 | 25 | CC(C)Oc1nc(Nc2ccc3nc[nH]c3c2)ncc1C(F)(F)F | –
22 | > 1000 | FC(F)(F)c1ccc(Oc2nc(Nc3ccc4[nH]cnc4c3)ncc2C(F)(F)F)cc1 | –
23 | 4 | FC(F)(F)c1cnc(Nc2ccc3nc[nH]c3c2)nc1Nc1ccc(Cl)cc1 | –
24 | 3 | FC(F)(F)c1cnc(Nc2ccc3nc[nH]c3c2)nc1Nc1cccc(Cl)c1 | –
25 | > 1000 | FC(F)(F)c1cnc(Nc2ccccc2Cl)nc1Nc1ccc2nc[nH]c2c1 | –
26 | 562 | FC(F)(F)c1cnc(Nc2ccc3nc[nH]c3c2)nc1Oc1ccc(Br)cc1 | –
27 | 77 | CCOc1nc(Nc2ccc3nc[nH]c3c2)ncc1C(F)(F)F | –
28 | 0.1 | NS(=O)(=O)c1ccc(Nc2ncc(C(F)(F)F)c(Nc3ccc4nc[nH]c4c3)n2)cc1 | –
29 | > 1000 | COc1cccc(Sc2nc(Nc3ccc4nc[nH]c4c3)ncc2C(F)(F)F)c1 | –
30 | 252 | FC(F)(F)c1cnc(Nc2ccc3nc[nH]c3c2)nc1Oc1ccc(Cl)cc1 | –
31 | > 1000 | CN(c1cccc(Cl)c1)c1ncc(C(F)(F)F)c(Nc2ccc3nc[nH]c3c2)n1 | –
32 | 15 | FC(F)(F)c1ccc(Nc2ncc(C(F)(F)F)c(Nc3ccc4nc[nH]c4c3)n2)cc1 | –
33 | 11 | FC(F)(F)c1cnc(Nc2ccc(Br)cc2)nc1Nc1ccc2[nH]cnc2c1 | IC50 [2]: 750 nM; IC50 [3]: 190 nM; IC50 [6]: 73 nM; IC50 [7]: 260 nM and 1200 nM; IC50 [4]: > 1000 nM; IC50 [5]: 91 nM
34 | 32 | Fc1ccc(Oc2nc(Nc3ccc4[nH]cnc4c3)ncc2C(F)(F)F)cc1 | –
35 | 4 | Cc1ccccc1Oc1nc(Nc2ccc3[nH]cnc3c2)ncc1C(F)(F)F | –
36 | 160 | COc1cccc(Oc2nc(Nc3ccc4nc[nH]c4c3)ncc2C(F)(F)F)c1 | –
37 | 8 | COc1ccc(Nc2nc(Nc3ccc4[nH]cnc4c3)ncc2C(F)(F)F)cc1 | IC50 [2]: > 1000 nM; IC50 [3]: 33 nM; IC50 [6]: 31 nM; IC50 [7]: 57 nM and 230 nM; IC50 [4]: > 1000 nM; IC50 [5]: 11 nM
38 | 22 | FC(F)(F)c1cnc(Nc2cccc(Cl)c2)nc1Nc1ccc2[nH]cnc2c1 | –
39 | 15 | Cc1cccc(Nc2ncc(C(F)(F)F)c(Nc3ccc4nc[nH]c4c3)n2)c1 | –
